Numbers after ± are expanded uncertainties.
Assays:
[1] = refractive index (Na D-line) (dimensionless); conditions: 298.15 K; 101.33 kPa; Liquid; Standard Abbe refractometry
[2] = 298.15 K; 101.33 kPa; Liquid; Vibrating tube method

SMILES	refractive index [1]	mass density [2] [kg/m3]
CC(=O)[O-].CCn1cc[n+](C)c1 [1-ethyl-3-methylimidazolium acetate]	1.50069 ± 0.001	1099.02 ± 8.4
CCOP(=O)([O-])OCC.CCn1cc[n+](C)c1 [1-ethyl-3-methylimidazolium diethyl phosphate]	1.47304 ± 0.001	1148.4 ± 9.2
c1ccsc1 [thiophene]	1.52523 ± 0.00033	1058.61 ± 0.15
Cc1ccccc1 [toluene]	1.49367 ± 0.00033	862.18 ± 0.16
CCCCCC [hexane]	1.37236 ± 0.00037	655.09 ± 0.33
c1ccncc1 [pyridine]	1.50636 ± 0.00033	978.04 ± 0.12

From the NIST ThermoML archive (doi:10.1016/j.fluid.2013.07.028)
